The source of these data is patent US10213433B2 (AbbVie Inc., priority 2010, dated 2019).

A value given as a limit tells only on which side of the number the result lay.

Chain of Bcl-2 protein (P10415 whole entry): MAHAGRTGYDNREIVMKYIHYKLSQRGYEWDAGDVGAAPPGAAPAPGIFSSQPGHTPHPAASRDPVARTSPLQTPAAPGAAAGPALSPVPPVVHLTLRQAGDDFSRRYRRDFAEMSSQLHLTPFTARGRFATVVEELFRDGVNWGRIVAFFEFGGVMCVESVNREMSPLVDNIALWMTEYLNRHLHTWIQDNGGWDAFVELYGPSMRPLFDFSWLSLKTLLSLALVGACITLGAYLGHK

In the assay the target is Bcl-2 protein (Homo sapiens (Human), UniProt P10415). The assay is described as follows: Bcl-2 binding TR-FRET (Time-Resolved Fluorescence-Resonance-Energy-Transfer) assay. The note with it: inhibition constant for binding to Bcl-2 protein. The source says:
The smaller the Ki value, the greater is the binding affinity.
On to `COCCOCCN1CC[C@@H](Nc2ccc(S(=O)(=O)NC(=O)c3ccc(N4CCN(CC5=C(c6ccc(Cl)cc6)CC(C)(C)CC5)CC4)cc3Oc3cnc4[nH]ccc4c3)cc2[N+](=O)[O-])C1` [Compound 254, 4-(4-{[2-(4-chlorophenyl)-4,4-dimethylcyclohex-1-en-1-yl]methyl}piperazin-1-yl)-N-{[4-({(3R)-1-[2-(2-methoxyethoxyl)ethyl]pyrrolidin-3-yl}amino)-3-nitrophenyl]sulfonyl}-2-(1H-pyrrolo[2,3-b]pyridin-5-yloxy)benzamide], for which the Ki is below 0.01 nM.

As for `CN(C)CC(=O)N1CC[C@@H](Nc2ccc(S(=O)(=O)NC(=O)c3ccc(N4CCN(CC5=C(c6ccc(Cl)cc6)CC(C)(C)CC5)CC4)cc3Oc3cnc4[nH]ccc4c3)cc2[N+](=O)[O-])C1` [Compound 255, 4-(4-{[2-(4-chlorophenyl)-4,4-dimethylcyclohex-1-en-1-yl]methyl}piperazin-1-yl)-N-[(4-{[(3R)-1-(N,N-dimethylglycyl)pyrrolidin-3-yl]amino}-3-nitrophenyl)sulfonyl]-2-(1H-pyrrolo[2,3-b]pyridin-5-yloxy)benzamide], the inhibition constant (Ki) was below 0.01 nM.

The compound `CC1(C)CCC(CN2CCN(c3ccc(C(=O)NS(=O)(=O)c4ccc(NC5CN(C6COC6)C5)c([N+](=O)[O-])c4)c(Oc4cnc5[nH]ccc5c4)c3)CC2)=C(c2ccc(Cl)cc2)C1` [Compound 256, 4-(4-{[2-(4-chlorophenyl)-4,4-dimethylcyclohex-1-en-1-yl]methyl}piperazin-1-yl)-N-[(3-nitro-4-{[1-(oxetan-3-yl)azetidin-3-yl]amino}phenyl)sulfonyl]-2-(1H-pyrrolo[2,3-b]pyridin-5-yloxy)benzamide] returned a Ki below 0.01 nM.

The compound `CN(C)CC(=O)N1CCO[C@H](CNc2ccc(S(=O)(=O)NC(=O)c3ccc(N4CCN(CC5=C(c6ccc(Cl)cc6)CC(C)(C)CC5)CC4)cc3Oc3cnc4[nH]ccc4c3)cc2[N+](=O)[O-])C1` [Compound 258, 4-(4-{[2-(4-chlorophenyl)-4,4-dimethylcyclohex-1-en-1-yl]methyl}piperazin-1-yl)-N-{[4-({[(2R)-4-(N,N-dimethylglycyl)morpholin-2-yl]methyl}amino)-3-nitrophenyl]sulfonyl}-2-(1H-pyrrolo[2,3-b]pyridin-5-yloxy)benzamide] showed an inhibition constant (Ki) below 0.01 nM.

With `CN(C)CC(=O)N1CCO[C@@H](CNc2ccc(S(=O)(=O)NC(=O)c3ccc(N4CCN(CC5=C(c6ccc(Cl)cc6)CC(C)(C)CC5)CC4)cc3Oc3cnc4[nH]ccc4c3)cc2[N+](=O)[O-])C1` [Compound 259, 4-(4-{[2-(4-chlorophenyl)-4,4-dimethylcyclohex-1-en-1-yl]methyl}piperazin-1-yl)-N-{[4-({[(2S)-4-(N,N-dimethylglycyl)morpholin-2-yl]methyl}amino)-3-nitrophenyl]sulfonyl}-2-(1H-pyrrolo[2,3-b]pyridin-5-yloxy)benzamide], the Ki was below 0.01 nM.

`CC1(C)CCC(CN2CCN(c3ccc(C(=O)NS(=O)(=O)c4ccc(N[C@@H]5CCN(CC#N)C5)c([N+](=O)[O-])c4)c(Oc4cnc5[nH]ccc5c4)c3)CC2)=C(c2ccc(Cl)cc2)C1` [Compound 262, 4-(4-{[2-(4-chlorophenyl)-4,4-dimethylcyclohex-1-en-1-yl]methyl}piperazin-1-yl)-N-[(4-{[(3R)-1-(cyanomethyl)pyrrolidin-3-yl]amino}-3-nitrophenyl)sulfonyl]-2-(1H-pyrrolo[2,3-b]pyridin-5-yloxy)benzamide]: the Ki was below 0.01 nM.

For the compound `O=C(NS(=O)(=O)c1ccc(NCC2CCOCC2)c([N+](=O)[O-])c1)c1ccc(N2CCN(CC3=C(c4ccc(Cl)cc4)CCC4(CCN(C(CF)CF)CC4)C3)CC2)cc1Oc1cnc2[nH]ccc2c1` [Compound 265, 4-(4-{[9-(4-chlorophenyl)-3-(1,3-difluoropropan-2-yl)-3-azaspiro[5.5]undec-8-en-8-yl]methyl}piperazin-1-yl)-N-({3-nitro-4-[(tetrahydro-2H-pyran-4-ylmethyl)amino]phenyl}sulfonyl)-2-(1H-pyrrolo[2,3-b]pyridin-5-yloxy)benzamide], the Ki is below 0.01 nM.

In turn, `CC(C)N1CCC2(CCC(c3ccc(Cl)cc3)=C(CN3CCN(c4ccc(C(=O)NS(=O)(=O)c5ccc(NCC6CCOCC6)c([N+](=O)[O-])c5)c(Oc5cnc6[nH]ccc6c5)c4)CC3)C2)CC1` [Compound 266, 4-(4-{[9-(4-chlorophenyl)-3-isopropyl-3-azaspiro[5.5]undec-8-en-8-yl]methyl}piperazin-1-yl)-N-({3-nitro-4-[(tetrahydro-2H-pyran-4-ylmethyl)amino]phenyl}sulfonyl)-2-(1H-pyrrolo[2,3-b]pyridin-5-yloxy)benzamide] came in with an inhibition constant Ki below 0.01 nM.

For the compound `CC(C)N1CCC2(CCC(c3ccc(Cl)cc3)=C(CN3CCN(c4ccc(C(=O)NS(=O)(=O)c5cnc(OCC6CCOCC6)c(Cl)c5)c(Oc5cnc6[nH]ccc6c5)c4)CC3)C2)CC1` [Compound 268, 4-(4-{[9-(4-chlorophenyl)-3-isopropyl-3-azaspiro[5.5]undec-8-en-8-yl]methyl}piperazin-1-yl)-N-{[5-chloro-6-(tetrahydro-2H-pyran-4-ylmethoxy)pyridin-3-yl]sulfonyl}-2-(1H-pyrrolo[2,3-b]pyridin-5-yloxy)benzamide], the inhibitory constant (Ki) is below 0.01 nM.

In the case of `CN(C)CC(=O)N1CCC(F)(COc2ncc(S(=O)(=O)NC(=O)c3ccc(N4CCN(CC5=C(c6ccc(Cl)cc6)CC(C)(C)CC5)CC4)cc3Oc3cnc4[nH]ccc4c3)cc2Cl)CC1` [Compound 270, N-[(5-chloro-6-{[1-(N,N-dimethylglycyl)-4-fluoropiperidin-4-yl]methoxy}pyridin-3-yl)sulfonyl]-4-(4-{[2-(4-chlorophenyl)-4,4-dimethylcyclohex-1-en-1-yl]methyl}piperazin-1-yl)-2-(1H-pyrrolo[2,3-b]pyridin-5-yloxy)benzamide], the Ki was below 0.01 nM.

Turning to `CC1(C)CCC(CN2CCN(c3ccc(C(=O)NS(=O)(=O)c4ccc(OCCOC5CCOC5)c([N+](=O)[O-])c4)c(Oc4cnc5[nH]ccc5c4)c3)CC2)=C(c2ccc(Cl)cc2)C1` (stereo not shown) [Compound 275, 4-(4-{[2-(4-chlorophenyl)-4,4-dimethylcyclohex-1-en-1-yl]methyl}piperazin-1-yl)-N-({3-nitro-4-[2-(tetrahydrofuran-3-yloxy)ethoxy]phenyl}sulfonyl)-2-(1H-pyrrolo[2,3-b]pyridin-5-yloxy)benzamide], the inhibition constant Ki was below 0.01 nM.

Take `CC1(C)CCC(CN2CCN(c3ccc(C(=O)NS(=O)(=O)c4cnc(OCC5(F)CCN(C(CF)CF)CC5)c(Cl)c4)c(Oc4cnc5[nH]ccc5c4)c3)CC2)=C(c2ccc(Cl)cc2)C1` [Compound 282, N-[(5-chloro-6-{[1-(1,3-difluoropropan-2-yl)-4-fluoropiperidin-4-yl]methoxy}pyridin-3-yl)sulfonyl]-4-(4-{[2-(4-chlorophenyl)-4,4-dimethylcyclohex-1-en-1-yl]methyl}piperazin-1-yl)-2-(1H-pyrrolo[2,3-b]pyridin-5-yloxy)benzamide]: the Ki was below 0.01 nM.

Regarding `CN1CCC(F)(COc2ccc(S(=O)(=O)NC(=O)c3ccc(N4CCN(CC5=C(c6ccc(Cl)cc6)CC(C)(C)CC5)CC4)cc3Oc3cnc4[nH]ccc4c3)cc2Cl)CC1` [Compound 283, N-({3-chloro-4-[(4-fluoro-1-methylpiperidin-4-yl)methoxy]phenyl}sulfonyl)-4-(4-{[2-(4-chlorophenyl)-4,4-dimethylcyclohex-1-en-1-yl]methyl}piperazin-1-yl)-2-(1H-pyrrolo[2,3-b]pyridin-5-yloxy)benzamide], the Ki is below 0.01 nM.
